According to paper PMC10117910, “Recombinant production, purification, and biochemical characterization of a novel L-lactate dehydrogenase from Bacillus cereus NRC1 and inhibition study of mangiferin” (Frontiers in Bioengineering and Biotechnology, 2023):

Columns and labels:
[1] = biological target: T1, L-lactate dehydrogenase (Bc-LDH) (Bacillus cereus, UniProt Q81EP4); experiment: LDH activity assay (NADH absorbance at […] nm) of purified enzyme; Lineweaver-Burk and Dixon plots; assay type: biochemical
T1 construct: gene ldh1; full-length, 314 amino acids (GenBank BDI00612.1), recombinant from pET28-Bc-LDH in E. coli BL21 (DE3)
T1 sequence (Q81EP4 whole entry): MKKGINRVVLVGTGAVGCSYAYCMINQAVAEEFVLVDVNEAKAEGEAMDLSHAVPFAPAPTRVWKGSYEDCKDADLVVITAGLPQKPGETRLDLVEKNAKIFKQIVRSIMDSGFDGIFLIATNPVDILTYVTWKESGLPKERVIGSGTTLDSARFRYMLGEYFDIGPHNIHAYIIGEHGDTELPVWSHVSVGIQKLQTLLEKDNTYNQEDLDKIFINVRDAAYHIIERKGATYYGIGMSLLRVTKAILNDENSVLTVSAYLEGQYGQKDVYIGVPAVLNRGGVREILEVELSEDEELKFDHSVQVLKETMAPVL

[2] = biological target: Bacillus cereus NRC1 L-lactate dehydrogenase (Bacillus cereus NRC1) (UniProt P0A392); experiment: SEC; gel filtration on a calibrated Sephacryl S-300 column (142 cm × 1.75 cm i.d.), eluted with 0.02 M phosphate buffer pH 7.5; native mass compared with the subunit mass by SDS-PAGE (35 kDa)

| Compound | Ki [1] | stoichiometry N [2] |
| --- | --- | --- |
| O=c1c2cc(O)c(O)cc2oc2cc(O)c([C@@H]3O[C@H](CO)[C@@H](O)[C@H](O)[C@H]3O)c(O)c12 [mangiferin, 2-β-D-glucopyranosyl-1,3,6,7-tetrahydroxy-9H-xanthen-9-one] | 75 µM | – |
| Bacillus cereus NRC1 L-lactate dehydrogenase (from UniProt P0A392 1-366) (enzyme) | – | 4 |
